Laboratory results taken from ChEMBL document CHEMBL1955725, “Structure-guided lead optimization of triazolopyrimidine-ring substituents identifies potent Plasmodium falciparum dihydroorotate dehydrogenase inhibitors with clinical candidate potential” (J Med Chem, 2011).
≈ marks a conversion by molar mass, not a printed value.

Legend:
Plasma = assay: Plasma protein binding in human by chromatographic method; format: ADME, cell-free
Liver microsomes = assay: Intrinsic clearance in human liver microsomes; format: ADME, Microsome
Liver = assay: Intrinsic clearance in mouse liver microsomes; format: ADME, Microsome
[1] = Inhibition of Plasmodium berghei C-terminal hexa-His tagged DHODH expressed in Escherichia coli by DCIP reduction assay
Plasmodium falciparum [2] = assay: Antimalarial activity against Plasmodium falciparum 3D7 by [3H]hypoxanthine incorporation assay in presence of human serum; format: functional, organism-based
[3] = Lipophilicity, log D of the compound at pH 7.4; format: physicochemical; settings: buffer
[4] = Aqueous solubility of the compound at pH 6.5; format: physicochemical
[5] = molecular target: Dihydroorotate dehydrogenase (quinone), mitochondrial (Homo sapiens, UniProt Q02127)
Description: Inhibition of human C-terminal hexa-His tagged DHODH expressed in Escherichia coli by DCIP reduction assay

Plasmodium falciparum [6] = assay: Antimalarial activity against Plasmodium falciparum 3D7 0087/N9 infected in human RBC engrafted NOD-SCID IL-2Rgamma-null mouse assessed as reduction in parasitemia administered orally 3 days post infection qd for 4 days measured 24 hrs after final dose by FACS analysis; format: functional; settings: 3D7 0087/N9, po
[7] = molecular target: T1, Dihydroorotate dehydrogenase (Plasmodium falciparum, UniProt Q54A96)
T1 sequence (Q54A96 whole entry): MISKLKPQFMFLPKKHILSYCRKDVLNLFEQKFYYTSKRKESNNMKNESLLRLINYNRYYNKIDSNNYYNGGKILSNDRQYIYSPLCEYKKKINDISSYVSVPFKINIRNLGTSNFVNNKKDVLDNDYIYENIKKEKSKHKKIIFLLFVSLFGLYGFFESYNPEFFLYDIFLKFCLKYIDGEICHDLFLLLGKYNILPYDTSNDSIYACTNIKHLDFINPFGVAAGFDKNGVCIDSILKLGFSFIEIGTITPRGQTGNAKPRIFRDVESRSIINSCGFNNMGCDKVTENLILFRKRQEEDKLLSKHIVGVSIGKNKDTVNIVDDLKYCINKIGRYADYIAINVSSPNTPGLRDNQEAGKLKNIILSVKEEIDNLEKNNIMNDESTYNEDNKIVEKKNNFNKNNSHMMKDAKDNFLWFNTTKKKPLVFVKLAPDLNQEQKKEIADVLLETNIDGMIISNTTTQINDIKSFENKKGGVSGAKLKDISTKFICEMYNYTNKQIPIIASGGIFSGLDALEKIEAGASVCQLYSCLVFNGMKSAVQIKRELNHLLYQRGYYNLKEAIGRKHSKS
Description: Inhibition of Plasmodium falciparum C-terminal hexa-His tagged DHODH expressed in Escherichia coli by DCIP reduction assay

[8] = Terminal elimination half life in Swiss outbred mouse at 10 mg/kg, po; format: ADME, organism-based; set-up: dose 10 mg/kg, route oral; settings: in vivo, read-out: beta t1/2 (converted)
[9] = Cmax in Swiss outbred mouse at 10 mg/kg, po; format: ADME, organism-based; set-up: dose 10 mg/kg, route oral; settings: in vivo
[10] = AUC (0 to infinity) in Swiss outbred mouse plasma at 10 mg/kg, po; format: ADME, organism-based; set-up: time infinity, dose 10 mg/kg, route oral
Mus musculus [11] = assay: Time plasma concentration remained above 1 uM in Swiss outbred mouse plasma at 10 mg/kg, po; format: ADME, organism-based; set-up: dose 10 mg/kg, route oral; settings: in vivo
in vivo [12] = settings: Swiss outbred, mouse, po, 10 mg/kg
[13] = Terminal elimination half life in Swiss outbred mouse at 20 mg/kg, po; format: ADME, organism-based; set-up: dose 20 mg/kg, route oral; settings: in vivo, read-out: beta t1/2 (converted)
[14] = Cmax in Swiss outbred mouse at 20 mg/kg, po; format: ADME, organism-based; set-up: dose 20 mg/kg, route oral; settings: in vivo
Mus musculus [15] = assay: Time plasma concentration remained above 1 uM in Swiss outbred mouse plasma at 20 mg/kg, po; format: ADME, organism-based; set-up: dose 20 mg/kg, route oral; settings: in vivo
[16] = AUC (0 to infinity) in Swiss outbred mouse plasma at 20 mg/kg, po; format: ADME, organism-based; set-up: time infinity, dose 20 mg/kg, route oral
in vivo [17] = settings: Swiss outbred, mouse, po, 20 mg/kg

Chain of Dihydroorotate dehydrogenase (quinone), mitochondrial (Q02127 whole entry): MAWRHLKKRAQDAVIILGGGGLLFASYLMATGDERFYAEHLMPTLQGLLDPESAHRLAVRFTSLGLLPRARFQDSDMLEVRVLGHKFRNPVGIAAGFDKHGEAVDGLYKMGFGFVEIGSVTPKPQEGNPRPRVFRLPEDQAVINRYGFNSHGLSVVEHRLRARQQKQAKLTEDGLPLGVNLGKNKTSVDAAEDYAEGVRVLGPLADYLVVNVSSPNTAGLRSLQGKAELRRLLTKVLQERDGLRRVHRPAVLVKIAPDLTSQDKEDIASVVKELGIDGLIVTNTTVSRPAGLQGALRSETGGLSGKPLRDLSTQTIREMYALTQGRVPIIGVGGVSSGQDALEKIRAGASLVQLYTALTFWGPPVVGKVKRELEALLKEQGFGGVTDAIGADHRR

Structure (SMILES) | PPB (Plasma) | Intrinsic clearance (Liver microsomes) | Intrinsic clearance (Liver) | IC50 [1] | EC50 (Plasmodium falciparum [2]) | logD [3] | solubility [4] | IC50 [5] | IC50 [7] | other results
CCC(F)(F)c1nc2nc(C)cc(Nc3ccc(S(F)(F)(F)(F)F)cc3)n2n1 | 97.7% | < 5 µL/min/mg | 6.7 µL/min/mg | 4700 nM | 550 nM | 3.9 | 15 µM (≈ 6.44 µg/mL) | > 100 µM | – | –
CCN(CC)CCCC(C)Nc1ccnc2cc(Cl)ccc12 (centres undefined) [CHLOROQUINE] | – | – | – | – | – | – | – | – | – | ED50 (Plasmodium falciparum [6]): 3.2 mg/kg; ED90 (Plasmodium falciparum [6]): 4.9 mg/kg
Cc1cc(Nc2ccc(Cl)cc2)n2nc(C(C)(F)F)nc2n1 | 87.9% | 16 µL/min/mg | 62.8 µL/min/mg | 1700 nM | 50 nM | 3 | 77 µM (≈ 24.9 µg/mL) | > 100 µM | 38 nM | –
CCC(F)(F)c1nc2nc(C)cc(Nc3ccc(C(F)(F)F)cc3)n2n1 | 93.2% | < 5 µL/min/mg | 6.5 µL/min/mg | 2500 nM | 45 nM | 3.6 | 17 µM (≈ 6.31 µg/mL) | > 100 µM | 19 nM | half-life [8]: 186 min; Cmax [9]: 3.5 µM; AUC(0-inf) [10]: 10.9 µM·h; Time (Mus musculus [11]): 4 h; Tmax (in vivo [12]): 30 min
Cc1cc(Nc2ccc(C(F)(F)F)cc2)n2nc(C3CC3)nc2n1 | 92.8% | < 5 µL/min/mg | 8.6 µL/min/mg | 2600 nM | 150 nM | 3.3 | 38 µM (≈ 12.7 µg/mL) | > 100 µM | 140 nM | –
CSc1nc2nc(C)cc(Nc3ccc(S(F)(F)(F)(F)F)cc3)n2n1 | 97.7% | 22.4 µL/min/mg | 107.5 µL/min/mg | > 10000 nM | 32 nM | 3.5 | 7.8 µM (≈ 3.1 µg/mL) | – | 30 nM | –
COCCc1nc2nc(C)cc(Nc3ccc(S(F)(F)(F)(F)F)cc3)n2n1 | 87.7% | 11.5 µL/min/mg | 14.1 µL/min/mg | – | 5000 nM | 3 | 31 µM (≈ 12.7 µg/mL) | – | 2500 nM | –
Cc1cc(Nc2ccc(Cl)cc2)n2nc(C(C)C)nc2n1 | 84.9% | 14.1 µL/min/mg | 157.7 µL/min/mg | 2100 nM | 850 nM | 3.2 | 83 µM (≈ 25 µg/mL) | – | 330 nM | –
CCc1nc2nc(C)cc(Nc3ccc(S(F)(F)(F)(F)F)cc3)n2n1 | 96.4% | < 5 µL/min/mg | 16.7 µL/min/mg | 1400 nM | 100 nM | 3.3 | 34 µM (≈ 12.9 µg/mL) | > 100 µM | – | –
CCc1nc2nc(C)cc(Nc3cccc(Cl)c3)n2n1 | 86.7% | 78.3 µL/min/mg | 125.4 µL/min/mg | – | 3300 nM | 2.8 | 170 µM (≈ 48.9 µg/mL) | – | 240 nM | –
CCc1nc2nc(C)cc(Nc3ccc(Cl)cc3)n2n1 | 86.1% | 12.8 µL/min/mg | 63.1 µL/min/mg | 2300 nM | 790 nM | 2.8 | 170 µM (≈ 48.9 µg/mL) | – | 280 nM | –
CCOc1nc2nc(C)cc(Nc3ccc(S(F)(F)(F)(F)F)cc3)n2n1 | 97.7% | < 5 µL/min/mg | 11.3 µL/min/mg | 470 nM | 100 nM | 3.4 | 4 µM (≈ 1.58 µg/mL) | > 100 µM | 57 nM | half-life [13]: 162 min; Cmax [14]: 1100 nM; Time (Mus musculus [15]): 3 h; AUC(0-inf) [16]: 10.1 µM·h; Tmax (in vivo [17]): 1 h
COCc1nc2nc(C)cc(Nc3ccc(S(F)(F)(F)(F)F)cc3)n2n1 | 91.7% | 5.6 µL/min/mg | 14.3 µL/min/mg | 3300 nM | 2100 nM | 2.8 | 63 µM (≈ 24.9 µg/mL) | – | 390 nM | –
Cc1cc(Nc2ccc(S(F)(F)(F)(F)F)cc2)n2nc(C3CC3)nc2n1 | 97.7% | < 5 µL/min/mg | 12.6 µL/min/mg | 2000 nM | 500 nM | 3.5 | 16 µM (≈ 6.26 µg/mL) | > 100 µM | – | –
C[C@H]1[C@H](OC(=O)CCC(=O)O)O[C@@H]2O[C@@]3(C)CC[C@H]4[C@H](C)CC[C@@H]1[C@@]24OO3 [ARTESUNATE] | – | – | – | – | – | – | – | – | – | ED90 (Plasmodium falciparum [6]): 12.7 mg/kg
CSc1nc2nc(C)cc(Nc3ccc(C(F)(F)F)cc3)n2n1 | 91.8% | 18.7 µL/min/mg | 76.9 µL/min/mg | 4800 nM | 8.4 nM | 3.2 | 19 µM (≈ 6.45 µg/mL) | – | 36 nM | –
Cc1cc(Nc2cccc(Cl)c2)n2nc(C(C)(F)F)nc2n1 | 88.2% | 44.4 µL/min/mg | 72.2 µL/min/mg | – | 130 nM | 3 | 77 µM (≈ 24.9 µg/mL) | – | 54 nM | –
COCCc1nc2nc(C)cc(Nc3ccc(C(F)(F)F)cc3)n2n1 | 73.7% | 9 µL/min/mg | 14.3 µL/min/mg | – | 4200 nM | 2.7 | 71 µM (≈ 24.9 µg/mL) | – | 2500 nM | –
COCc1nc2nc(C)cc(Nc3ccc(C(F)(F)F)cc3)n2n1 | 75.6% | 6.7 µL/min/mg | 13.3 µL/min/mg | 5500 nM | 1000 nM | 2.5 | 150 µM (≈ 50.6 µg/mL) | – | 410 nM | –
